# From ChEMBL document CHEMBL1201862, “PubChem BioAssay data set” (2004)
#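 How tested: cells in 96-well plates exposed to compound for 48 hours at five concentrations. The concentration for 50% growth inhibition is given as GI50.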 The source made the active and inactive calls. No stated cut-off is given here; in the data, active = GI50 up to about 1.1 µM and inactive = higher.
# Columns and labels:
# Experiment in all cases: growth of human tumour cells (NCI), 48 h
# HL-60 = system: HL-60
# M14 = system: M14
# SK-MEL-2 = system: SK-MEL-2
# COLO 205 = system: COLO 205
# OVCAR-4 = system: OVCAR-4
# PC-3 = system: PC-3
# BT-549 = system: BT-549
# MOLT-4 = system: MOLT-4
# SW-620 = system: SW-620
# SF-295 = system: SF-295
# LOX IMVI = system: LOX IMVI
# OVCAR-8 = system: OVCAR-8
# HT-29 = system: HT-29
# RXF 393 = system: RXF 393
# OVCAR-5 = system: OVCAR-5
# NCI-H226 = system: NCI-H226
# A498 = system: A498
# 786-0 = system: 786-0
# HCT-15 = system: HCT-15
# SK-MEL-28 = system: SK-MEL-28
Structure (SMILES),GI50 (HL-60),GI50 (M14),GI50 (SK-MEL-2),GI50 (COLO 205),GI50 (OVCAR-4),GI50 (PC-3),GI50 (BT-549),GI50 (MOLT-4),GI50 (SW-620),GI50 (SF-295),GI50 (LOX IMVI),GI50 (OVCAR-8),GI50 (HT-29),GI50 (RXF 393),GI50 (OVCAR-5),GI50 (NCI-H226),GI50 (A498),GI50 (786-0),GI50 (HCT-15),GI50 (SK-MEL-28)
CC(=O)O[C@H]1C#C/C=C\C#CC[C@@H]2C(=O)N[C@@H]12,1.99 µM (inactive),43.8 µM (inactive),67.8 µM (inactive),50.4 µM (inactive),> 100 µM (inactive),> 100 µM (inactive),30.7 µM (inactive),0.231 µM (active),> 51.3 µM (inactive),24.5 µM (inactive),7.78 µM (inactive),19.8 µM (inactive),> 49.8 µM (inactive),23.2 µM (inactive),> 100 µM (inactive),25.7 µM (inactive),21.6 µM (inactive),5.42 µM (inactive),22.4 µM,93.3 µM (inactive)
OCC1C(O)C(O)[C@@H]2SCCN12 (stereo not given in full),> 100 µM (inactive),> 100 µM (inactive),> 100 µM (inactive),> 100 µM (inactive),> 100 µM (inactive),> 100 µM (inactive),> 100 µM (inactive),> 100 µM (inactive),> 100 µM (inactive),> 100 µM (inactive),> 100 µM (inactive),> 100 µM (inactive),> 100 µM (inactive),> 100 µM (inactive),> 100 µM (inactive),> 100 µM (inactive),> 100 µM (inactive),> 100 µM (inactive),> 100 µM,> 100 µM (inactive)
Cc1cc(Cc2cc(C)c(NC(=O)C(=O)C3CCC4=C(SC5C=CC=CC5N4)C3=O)c(C(C)C)c2)cc(C(C)C)c1NC(=O)C(=O)C1CCC2=C(SC3C=CC=CC3N2)C1=O (stereo not given),40.6 µM (inactive),> 100 µM (inactive),45.5 µM (inactive),44.6 µM (inactive),33.7 µM (inactive),25.1 µM (inactive),38.4 µM (inactive),32.2 µM (inactive),38 µM (inactive),69.7 µM (inactive),96.6 µM (inactive),29.7 µM (inactive),58.6 µM (inactive),44 µM (inactive),> 100 µM (inactive),31 µM (inactive),> 100 µM (inactive),> 100 µM (inactive),34.9 µM,> 100 µM (inactive)
COc1ccccc1/C=C1\CCC(Cc2ccccc2)(CN(C)C)C1=O (stereo not given),0.471 µM (active),3.13 µM (inactive),6.53 µM (inactive),1.37 µM (inactive),17.8 µM (inactive),1.03 µM (active),5 µM (inactive),1.05 µM (active),0.259 µM (active),1.34 µM (inactive),1.19 µM (inactive),2.33 µM (inactive),0.426 µM (active),7.93 µM (inactive),14.5 µM (inactive),23.6 µM (inactive),6.93 µM (inactive),1.43 µM (inactive),0.29 µM,20.3 µM (inactive)
COC(=O)[C@]1(c2cc3ccccc3[nH]2)CC2CN(C(=O)OCc3ccccc3)C1CC2=O (stereo not given in full),16.4 µM (inactive),30.5 µM (inactive),18.2 µM (inactive),16.5 µM (inactive),28.1 µM (inactive),17.1 µM (inactive),29.3 µM (inactive),15 µM (inactive),29.6 µM (inactive),25.4 µM (inactive),22.5 µM (inactive),26.7 µM (inactive),15.5 µM (inactive),16.2 µM (inactive),14.1 µM (inactive),18.2 µM (inactive),20 µM (inactive),23.8 µM (inactive),27.5 µM,39.3 µM (inactive)
Cn1cc(NC(=O)c2cc(NC(=O)CNC(=N)N)cn2C)cc1C(=O)NCCC(=N)N [NETROPSIN CHLORIDE],> 100 µM (inactive),> 100 µM (inactive),> 100 µM (inactive),> 100 µM (inactive),> 100 µM (inactive),> 100 µM (inactive),> 100 µM (inactive),> 100 µM (inactive),> 100 µM (inactive),> 100 µM (inactive),> 100 µM (inactive),> 100 µM (inactive),> 100 µM (inactive),> 100 µM (inactive),> 100 µM (inactive),> 100 µM (inactive),> 100 µM (inactive),> 100 µM (inactive),> 100 µM,> 100 µM (inactive)
